Our source for the melting point values is a melting point compilation (Tetko et al.).

Structures are written as SMILES.

On to `Cc1n[nH]c(C)c1C(=O)O`, for which the melting point is 273 to 275 °C.

In the case of `O=C(O)c1cc(O)ccc1F`, the melting point is 205 °C.

The compound `CC(C)(C)c1cc(C(=O)O)cc(C(C)(C)C)c1` came in with a melting point of 161 °C.

The compound `O=Cc1cccc2c1OCC2` came in with a melting point of 54 to 55 °C.

As to `CC(C)(C)NC(=O)c1ccccc1`, the melting point was 134 °C.

The compound `Brc1ccc(-c2ccc(Br)cc2)cc1` registered a melting point of 167 °C.

As to `C[Si](C)(C)c1ccc([Si](C)(C)C)cc1`, the melting point was in the range of 92 to 96 °C.

With `Cc1ccc(S(=O)(=O)OCCCOS(=O)(=O)c2ccc(C)cc2)cc1`, the melting point lay within 90 to 93 °C.

The compound `O=C(O)c1ccnc(N2CCOCC2)c1` had a melting point of 180 °C.

With `O=C(Nc1ccc(Cl)c(Cl)c1)c1cc(Cl)cc(Cl)c1O`, the melting point worked out at 162 °C.

In turn, `O=C(Cl)c1csc(-c2ccc(C(F)(F)F)cc2)n1` showed a melting point of 96 to 98 °C.

Consider `N#Cc1c(S)nc2c(c1C(F)(F)F)CCCC2`, for which the melting point was in the range of 216 to 220 °C.

In turn, `COc1cccc(OC)c1P(c1c(OC)cccc1OC)c1c(OC)cccc1OC` registered a melting point of 155 °C.

`NC(=O)c1sccc1N` showed a melting point of 120 to 122 °C.

The compound `Cc1ccccc1/C=C(\C#N)c1nc2ccccc2n1C` yielded a melting point of 269 °C.

`O=C(O)c1ccc(Cl)nc1Cl` gave a melting point of 148 °C.

In turn, `Nc1cc(-c2ccccc2)ccc1O` returned a melting point of 200 °C.

`CCCCCCCCCCCCCCCC#N` registered a melting point of 31 °C.

With `O=C(O)c1cncnc1`, the melting point fell in the range of 259 to 261 °C.

On to `C#CC1(O)CCC2(C)C(C1)CC1(OCCO1)C1C3CCC(=O)C3(C)CCC12` (stereo unspecified), for which the melting point is 308 °C.

In turn, `Cc1n[nH]c(SCC#N)n1` yielded a melting point of 158 to 160 °C.

For `CC(C)c1ccc2cc(C(C)C)ccc2c1`, the melting point amounted to 69 °C.

With `CC(C)CS(=O)(=O)CC(C)C`, the melting point was determined as 17 °C.

In turn, `O=C1NC(=S)NC(=O)C1=Cc1ccc(Br)o1` came in with a melting point of 215 °C.

With `OCC(O)CI` (stereo unspecified), the melting point amounted to 48.5 °C.

`C=COC(C)=O` had a melting point of -93.2 °C.

With `Cc1n[nH]c2c(=O)n(-c3ccccn3)c(C)nc12`, the melting point was 222 to 224 °C.

In the case of `CCN(CC)CCC#N`, the melting point was -64 °C.

`C1CC2CCC1C2`: the melting point came out at 87.5 °C.

Turning to `CN(N)C(=O)c1ccccc1N`, the melting point was 69 to 71 °C.

`COc1ccc(OC)c(C(=O)CCCCC(=O)O)c1` showed a melting point of 76 °C.

Regarding `O=[N+]([O-])c1cc(Cl)ccc1Sc1ccccc1`, the melting point is 82 to 84 °C.

Consider `CN(C)c1ccc(C2(c3ccc(N(C)C)cc3)OC(=O)c3cc(N(C)C)ccc32)cc1`, for which the melting point turned out to be 182 °C.

For `CC(=O)OC1CCCc2c(C)ccc(C)c21` (stereo unspecified), the melting point came out at 52 °C.

Consider `CC(C)(Oc1ccc(Cl)cc1)C(=O)NC(=O)NCN1CCOCC1`, for which the melting point is 100 °C.

`ClCc1cc(Cl)cc(Cl)c1` had a melting point of 36 °C.

Consider `CCc1ccccc1O`, for which the melting point is 18 °C.

With `Cc1cc(C)c(C(=O)P(=O)(c2ccccc2)c2ccccc2)c(C)c1`, the melting point turned out to be 90 °C.

`Cc1ccc2c(c1)OC(C)(c1ccc(C)cc1OC(=O)c1ccccc1)CC2(C)C` (stereo unspecified) displayed a melting point of 149 °C.

`CC(C)(C)c1cc(C#N)cc(C(C)(C)C)c1O` gave a melting point of 144 to 146 °C.

Regarding `CC(=O)Nc1ccc(S(=O)(=O)Cl)cc1Cl`, the melting point is 143 to 145 °C.

In turn, `Cc1nc(-c2ccc(C=O)s2)cs1` showed a melting point of 127 to 128 °C.

Compound `CC1=C(C(=O)O)C(c2ccccc2)N(C)C(=O)N1C` (stereo unspecified) had a melting point of 165 °C.

In turn, `CCCCNC(=O)NCC(=O)O` showed a melting point of 140 °C.

On to `O=C=Nc1cc([N+](=O)[O-])ccc1Cl`, for which the melting point amounted to 94 °C.

For `COc1ccc(C=O)cc1[N+](=O)[O-]`, the melting point was found to be 99 °C.

For the compound `Clc1ccc(NC2=NCCN2)cc1`, the melting point lay within 147 to 148 °C.

`CCOC(=O)C1C(C)=NN=C1N` (stereo unspecified) had a melting point of 54 to 56 °C.

`O=C(SSC(=O)c1ccccc1)c1ccccc1` gave a melting point of 134 °C.

In the case of `O=C(Cn1c(=O)sc2ccc(Cl)cc21)N1CCN(CCO)CC1`, the melting point came out at 160 °C.

On to `NCCc1cccc(CCO)c1`, for which the melting point worked out at 264 °C.

In turn, `O=C1/C(=N/Nc2cccnc2)C(C(F)(F)F)=NN1c1ccccc1` came in with a melting point of 161 °C.

The compound `CC(=O)NC(C)C(=O)O` (racemic) yielded a melting point of 137 °C.

`CCOC(=O)C(Cl)=Cc1cc(N2C(=O)C3=C(CCCC3)C2=O)ccc1Cl` returned a melting point of 112 °C.

`Nc1ncc2nc[nH]c2n1` showed a melting point of 280 to 284 °C.

Take `C#CCC(C)(C)C`: the melting point is -75 °C.

Compound `O=Cc1cc(C(=O)O)ccc1F` came in with a melting point of 152 to 153 °C.

With `O=[N+]([O-])c1cc2nccnc2cc1Cl`, the melting point lay in the range of 210 to 213 °C.

In turn, `ClCc1c2ccccc2cc2ccccc12` had a melting point of 140 °C.

Regarding `NC(=O)c1cc(Cl)ccc1Cl`, the melting point was determined as 160 °C.

As to `Cc1cccc(C)c1NC(=O)C1CCCCN1C` (stereo unspecified), the melting point was 150 °C.

Turning to `CCOC(=O)c1cc2cc([N+](=O)[O-])ccc2o1`, the melting point was 150 to 155 °C.

Turning to `O=C(O)c1cc(F)c(F)c(O)c1F`, the melting point lay in the range of 143 to 147 °C.

In the case of `CCCCCCCOc1ccc(O)cc1`, the melting point is 61.5 °C.

In turn, `O=C1OCCO1` gave a melting point of 39.5 °C.

In the case of `Cc1noc2c1c(=O)n(-c1ccccc1)c1ccccc21`, the melting point stood at 283 °C.

As for `CC(CCC(=O)O)C1CCC2C3C(=O)C(Br)C4CC(C(=O)O)CCC4(C)C3CC(C(=O)O)C12C` (stereo unspecified), the melting point lay within 229 to 230 °C.

On to `CCCCC(C)CC(O)C=CC1C(O)CC(=O)C1CCCCC=CC(=O)O` (stereo unspecified), for which the melting point came to 97 °C.

Regarding `O=C1c2ccc([N+](=O)[O-])cc2C(=O)N1CCCCCCBr`, the melting point fell in the range of 83 to 85 °C.

The compound `O=[N+]([O-])c1cc(CCBr)c([N+](=O)[O-])cc1CCBr` yielded a melting point of 123 °C.

Take `C(C=C(c1ccccc1)c1ccccc1)=C(c1ccccc1)c1ccccc1`: the melting point amounted to 198 °C.

In turn, `CC(C)(C)c1cc(C(=O)O)n(Cc2ccccc2)n1` had a melting point of 126 °C.

Take `Nc1ccc(C(O)(C(F)(F)F)C(F)(F)F)cc1`: the melting point was determined as 150 °C.

Turning to `CC1(C)C2CCC1(C)C(N=C1C(=O)Nc3ccccc31)C2N=C1C(=O)Nc2ccccc21` (stereo unspecified), the melting point was determined as 234 °C.

As to `OCC1=CCN2CCC(O)C12` (stereo unspecified), the melting point was 120 °C.

The compound `Cn1ccccc1=O` showed a melting point of 31 °C.

Take `CC1(C)CC(NCCCCCCNC2CC(C)(C)NC(C)(C)C2)CC(C)(C)N1`: the melting point worked out at 64 °C.

On to `CCOC(=O)NNC(=O)Nc1ccccc1`, for which the melting point lay in the range of 144 to 145 °C.

Turning to `CC(C)CCCC(C)C1CCC2C3CC(Cl)C4(O)CC(=O)CCC4(C)C3CCC12C` (stereo unspecified), the melting point was 214 °C.

Consider `O=S(=O)(Cl)c1cc(Br)c(Cl)s1`, for which the melting point was in the range of 63 to 65 °C.

On to `CCN=C=S`, for which the melting point is -5.9 °C.

As usually defined, the melting point is the temperature, or range, at which the solid turns liquid.
